Patent US9688613B2 (Jiva Pharma, Inc., priority 2015, dated 2017)

System: GABA-A receptors
Assay: Displacement of [3H] muscimol from GABA-A receptors
Assay type: binding
Experimental: Muscimol is the principal psychoactive constituent of Amanita muscaria and related species of mushroom.
These tests were performed using the procedure described by Tomasz Plech et. al., Studies on anticonvulsant activity of 4-alkyl-1,2,4-triazole-3-thiones and their effect on GABAergic system; European J. of Medicinal Chem. 2014, 86, 690-699.

| SMILES | % of [3H]-MUSCIMOL inhibition (LOG OF MOLAR CONC. −4) | % of [3H]-MUSCIMOL inhibition (LOG OF MOLAR CONC. −5) |
| --- | --- | --- |
| CC(C)C[C@H](CN)CC(=O)O [Pregabalin, S-isobutylgaba, reference compound] | 12% | 0% |
| CC/C=C\C/C=C\C/C=C\CCCCCCCC(CN)CC(=O)O (centres unmarked) [Example 3, 3-Aminomethyl-eicosa-11,14,17-trienoic Acid] | 8% | 0% |
| CC/C=C\C/C=C\C/C=C\C/C=C\C/C=C\C/C=C\CCC(CN)CC(=O)O (centres unmarked) [Example 1, 3-Aminomethyl-tetracosa-6,9,12,15,18,21-hexaenoic Acid] | 10% | 0% |
| CC/C=C\C/C=C\C/C=C\C/C=C\C/C=C\CCCC(CN)CC(=O)O (centres unmarked) [Example 2, 3-Aminomethyl-docosa-7,10,13,16,19-pentaenoic Acid] | 15% | 10% |
